# Measured values reported in patent US20220079913A1, “DIHYDROMYRICETIN WITH ANTI-ALCOHOLIC EFFECT” (Shanghai Spark Pharmaceutical Co., Ltd., priority 2020, published 2022).
# Experiments:
# [1] = Acute toxicity of dihydromyricetin, single oral gavage; format: in vivo, mice; settings: ICR, mouse, in vivo, po
# Protocol: (§1) Observation of the Acute Toxicity of Dihydromyricetin on ICR Mice
# (§2) Preparation of test substance: weighing the test substance of the required quality; adding sterile water for injection to prepare it to the required concentration; mixing well before administration.
# (§3) Animal breeds and strains: ICR mice
# (§4) After the adaptation period, 30 experimental animals were divided into 3 groups, half male and […]. After fasting for 12 hours, according to the body weight, the control reagents or the test substance were administered orally respectively. The animal's clinical symptoms after administration are observed, with abnormal records. The animals were weighed before the administration and on the 1, 3, 5, and 7 days after the administration. At the end of the experiment, the animals were euthanized by inhalation of excessive CO2
# [2] = test system: ICR mice; assay: as above; format: in vivo
# Protocol: as §1, §2, §3, §4
# [3] = test system: ICR mice; assay: Anti-alcoholic (hangover) test; format: in vivo; settings: for Number of deaths / Number of drunks: 20 animals; for Number of deaths / Number of drunks / Drunkenness rate / Mortality rate: after 10 hours of drinking
# Protocol: as §2, §3
# 60 experimental animals were divided into 3 groups, half male and […]. After fasting for 12 hours, according to the body weight, the control reagents the test substance were administered orally respectively.
# [4] = cited from earlier work
smiles,measurement,setting,value
"O=C1c2c(O)cc(O)cc2OC(c2cc(O)c(O)c(O)c2)C1O [Dihydromyricetin, (2R,3R)-3,5,7-trihydroxy-2-(3,4,5-trihydroxyphenyl) benzodihydropyran-4-one]",MTD at 7 days,[1],5000 mg/kg
same,Mortality rate,"[2]; 3500 mg/kg i.g. once, day 0",0%
same,Mortality rate,"[2]; 3500 mg/kg i.g. once, day 1",0%
same,Mortality rate,"[2]; 3500 mg/kg i.g. once, day 2",0%
same,Mortality rate,"[2]; 3500 mg/kg i.g. once, day 3",0%
same,Mortality rate,"[2]; 3500 mg/kg i.g. once, day 4",0%
same,Mortality rate,"[2]; 3500 mg/kg i.g. once, day 5",0%
same,Mortality rate,"[2]; 3500 mg/kg i.g. once, day 6",0%
same,Mortality rate,"[2]; 3500 mg/kg i.g. once, day 7",0%
same,Mortality rate,"[2]; 5000 mg/kg i.g. once, day 0",0%
same,Mortality rate,"[2]; 5000 mg/kg i.g. once, day 1",0%
same,Mortality rate,"[2]; 5000 mg/kg i.g. once, day 2",0%
same,Mortality rate,"[2]; 5000 mg/kg i.g. once, day 3",0%
same,Mortality rate,"[2]; 5000 mg/kg i.g. once, day 4",0%
same,Mortality rate,"[2]; 5000 mg/kg i.g. once, day 5",0%
same,Mortality rate,"[2]; 5000 mg/kg i.g. once, day 6",0%
same,Mortality rate,"[2]; 5000 mg/kg i.g. once, day 7",0%
same,mortality rate during the test period,"[2]; 3500 and 5000 mg/kg, single oral administration",0
same,Sobering time,[3]; 350 mg/kg i.g. once,376.35 min
same,Tolerance time,[3]; 350 mg/kg i.g. once,77.40 min
same,Number of deaths,[3]; 350 mg/kg i.g. once,0
same,Number of drunks,[3]; 350 mg/kg i.g. once,19
same,Drunkenness rate,[3]; 350 mg/kg i.g. once,95%
same,Mortality rate,[3]; 350 mg/kg i.g. once,0%
same,Sobering time,[3]; 1050 mg/kg i.g. once,214.32 min
same,Tolerance time,[3]; 1050 mg/kg i.g. once,193.00 min
same,Number of deaths,[3]; 1050 mg/kg i.g. once,1
same,Number of drunks,[3]; 1050 mg/kg i.g. once,14
same,Drunkenness rate,[3]; 1050 mg/kg i.g. once,70%
same,Mortality rate,[3]; 1050 mg/kg i.g. once,5%
same,Sobering time,"[3]; 1050 mg/kg i.g. once, listed as dihydromyricetin",214 min
same,sobering time compared with the control group,"[3]; 1050 mg/kg, control group 324 min, statistically different",significantly lower
same,solubility in chloroform and petroleum ether,[4]; chloroform and petroleum ether,hardly soluble
same,solubility in ethyl acetate,[4]; ethyl acetate,very slightly soluble
same,"solubility in methanol, ethanol and acetone","[4]; methanol, ethanol and acetone",easily soluble
same,solubility in water,[4]; room temperature and cold water,Low solubility
